Measurements as given in patent US11912693B2, “Compounds for modulating S1P1 activity and methods of using the same” (TREVENA, INC., priority 2017, dated 2024).

Assays:
[1] = target: T1, human sphingosine-1-phosphate receptor 1 (S1P1) (Homo sapiens (Human), UniProt P21453); assay: Inhibition of cAMP production (HTRF cAMP HiRange), S1P1 CHO-K1 cells; type: cell-based; settings: for hS1P1 cAMP SPAN / Emax: efficacy (SPAN) normalized to fingolimod; for Emax: CHO-K1, read-out: hS1P1 cAMP SPAN
Procedure: (§1) Stable clonal Chinese hamster ovary K1 (CHO-K1) cells co-expressing EA-β-arrestin2 and the human sphingosine-1-phosphate receptor 1 (NM_001400, S1P1) with a C-terminal Prolink™ tag were purchased from DiscoverX corporation (Cat #: 93-0207C2).
(§2) Cell lines were cultured in AssayComplete™ Media 6 (DiscoverX Corporation, Cat #: 920018GF2) at 37° C. and 5% CO2 in a humidified CO2 and temperature-controlled incubator. To begin assay plating, cells were washed with dulbecco's phosphate buffered saline (CellGro, Cat #: 21-031-CV) and lifted from the culturing flask by incubation (37° C., 5 min) with CellStripper (Cellgro, Cat #: 25-056-CI). […] Plated cells were incubated overnight at 37° C. and 5% CO2 in a humidified CO2 and temperature-controlled incubator. Detecting Inhibition of cAMP Production
Agonist-promoted G-protein responses were determined by measuring changes in intracellular cAMP using the HTRF® cAMP HiRange kit (CisBio, Cat #: 62AM6PEJ) based on time-resolved fluorescence resonance energy transfer (TR-FRET) technology. […] Following a 30-minute incubation at 37° C. and 5% CO2 in a humidified CO2 and temperature-controlled incubator, the components of the cAMP HiRange kit were added as per the manufacturer's instructions. After an hour incubation at room temperature, plates were analyzed by a BMG PheraStar microplate reader.
(§3) The tables below include the efficacy of the compound as compared to a positive control, referred to as “SPAN”. These values are normalized to fingolimod, a known agonist of the sphingosine-1-phosphate 1 receptor. The tables also include potency values (pEC50) for modulating discrete receptor-mediated activities (inhibition of cAMP production and […] recruitment).
Target sequence in this assay (P21453 whole entry, looked up): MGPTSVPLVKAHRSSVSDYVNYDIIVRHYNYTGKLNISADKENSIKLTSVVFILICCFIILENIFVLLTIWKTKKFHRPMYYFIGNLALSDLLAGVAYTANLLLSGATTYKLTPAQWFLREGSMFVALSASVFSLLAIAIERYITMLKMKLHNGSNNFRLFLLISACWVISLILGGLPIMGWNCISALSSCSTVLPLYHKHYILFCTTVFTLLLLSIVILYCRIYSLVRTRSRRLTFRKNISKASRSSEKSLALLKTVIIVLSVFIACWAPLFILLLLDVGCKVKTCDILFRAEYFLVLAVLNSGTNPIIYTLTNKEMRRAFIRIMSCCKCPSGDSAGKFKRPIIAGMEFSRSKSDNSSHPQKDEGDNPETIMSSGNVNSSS

[2] = target: T1, human sphingosine-1-phosphate receptor 1 (S1P1); assay: β-Arrestin2 recruitment assay (PathHunter), S1P1 CHO-K1 cells; type: cell-based; settings: for hS1P1 B-arrestin2 SPAN / Emax: efficacy (SPAN) normalized to fingolimod; for hS1P1 B-arrestin2 pEC50: β-arrestin2 recruitment, S1P1 CHO-K1 cells; for Emax: CHO-K1, read-out: hS1P1 B-arrestin2 SPAN
Procedure: as §1, §2
Target sequence in this assay (P21453 whole entry, looked up): as above
Target sequence in this assay (P32121 whole entry partner, looked up): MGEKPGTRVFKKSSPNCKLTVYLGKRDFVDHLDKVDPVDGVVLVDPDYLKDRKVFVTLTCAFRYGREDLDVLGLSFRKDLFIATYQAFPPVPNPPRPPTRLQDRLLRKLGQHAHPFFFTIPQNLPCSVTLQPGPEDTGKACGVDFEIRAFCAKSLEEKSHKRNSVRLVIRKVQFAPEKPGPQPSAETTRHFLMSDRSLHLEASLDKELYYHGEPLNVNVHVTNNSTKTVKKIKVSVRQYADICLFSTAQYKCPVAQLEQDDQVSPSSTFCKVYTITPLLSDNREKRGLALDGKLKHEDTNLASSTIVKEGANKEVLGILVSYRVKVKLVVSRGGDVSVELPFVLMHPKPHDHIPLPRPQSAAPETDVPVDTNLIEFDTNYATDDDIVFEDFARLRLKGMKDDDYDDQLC
Agonist-promoted β-arrestin2 recruitment to the sphingosine-1-phosphate 1 receptor was determined using the β-arrestin PathHunter®) Detection kit (DiscoverX Corporation, Cat #: 93-0001). […] In cells that stably express these fusion proteins, stimulation with a cognate agonist results in the interaction of […] and the Prolink™-tagged GPCR. This allows the complementation of the two β-galactosidase fragments and results in the formation of a functional enzyme with β-galactosidase activity. […] Following a 60 minute incubation at 37° C. and 5% CO2 in a humidified CO2 and temperature-controlled incubator, the components of the β-arrestin PathHunter® Detection kit were added as per the manufacturer's instructions. After an hour incubation at room temperature, plates were analyzed by a BMG PheraStar microplate reader.
as §3

[3] = inhibition of cAMP production, S1P1 CHO-K1 cells

Compound	hS1P1 cAMP pEC50 [1, 3]	hS1P1 B-arrestin2 pEC50 [2]	Emax [1]	EC50 ([1]; inhibition of cAMP production, S1P1 CHO-K1 cells, read-out: hS1P1 cAMP pEC50 (converted))	Emax [2]	hS1P1 cAMP SPAN [1]	hS1P1 B-arrestin2 SPAN [2]
Fc1cc(-c2noc(-c3ccc4c(c3)nnn4C3CCCC3)n2)ccc1C(F)(F)F [Compound 1, 1-cyclopentyl-5-{3-[3-fluoro-4-(trifluoromethyl)phenyl]-1,2,4-oxadiazol-5-yl}-1H-1,2,3-benzotriazole]	<6.5	<5	–	–	–	–	–
CCn1nnc2cc(-c3noc(-c4ccccc4Br)n3)ccc21 [Compound 2, 5-(2-bromophenyl)-3-(1-ethyl-1H-benzo[d][1,2,3]triazol-5-yl)-1,2,4-oxadiazole]	–	>5	> 75%	> 316 nM	< 75%	–	–
Cc1ccncc1-c1noc(-c2ccc3nnn(CC(C)C)c3c2)n1 [Compound 3, 1-(2-methylpropyl)-6-[3-(4-methylpyridin-3-yl)-1,2,4-oxadiazol-5-yl]-1H-1,2,3-benzotriazole]	>6.5	>5	–	–	–	–	–
FC(F)(F)c1cc(-c2noc(-c3ccc4c(c3)nnn4C3CCCC3)n2)ccc1OCc1cccnc1 [Compound 4, 1-cyclopentyl-5-{3-[4-(pyridin-3-ylmethoxy)-3-(trifluoromethyl)phenyl]-1,2,4-oxadiazol-5-yl}-1H-1,2,3-benzotriazole]	<6.5	<5	< 75%	–	< 75%	–	–
CCCn1nnc2cc(-c3nc(-c4ccc(F)cc4)no3)ccc21 [Compound 5, 5-[3-(4-fluorophenyl)-1,2,4-oxadiazol-5-yl]-1-propyl-1H-1,2,3-benzotriazole]	<6.5	<5	–	–	–	–	–
Cc1cnc(-c2noc(-c3ccc4c(c3)nnn4C3CCOCC3)n2)cn1 [Compound 6, 5-[3-(5-methylpyrazin-2-yl)-1,2,4-oxadiazol-5-yl]-1-(oxan-4-yl)-1H-1,2,3-benzotriazole]	<6.5	<5	< 75%	–	< 75%	–	–
c1ccc(-c2noc(-c3ccc4c(c3)nnn4C3CCCC3)n2)cc1 [Compound 7, 1-cyclopentyl-5-(3-phenyl-1,2,4-oxadiazol-5-yl)-1H-1,2,3-benzotriazole]	<6.5	<5	–	–	–	–	–
CC(C)n1nnc2cc(-c3nc(-c4ccc(-c5ccccc5)cn4)no3)ccc21 [Compound 9, 5-[3-(5-phenylpyridin-2-yl)-1,2,4-oxadiazol-5-yl]-1-(propan-2-yl)-1H-1,2,3-benzotriazole]	<6.5	<5	–	–	–	–	–
FC(F)(F)Oc1cccc(-c2nc(-c3ccc4c(c3)nnn4C3CCCC3)no2)c1 [Compound 10, 3-(1-cyclopentyl-1H-benzo[d][1,2,3]triazol-5-yl)-5-(3-(trifluoromethoxy)phenyl)-1,2,4-oxadiazole]	<6.5	<5	–	–	–	<75	<75
Cc1cccc(-c2noc(-c3ccc4c(c3)nnn4C3CCCCC3)n2)c1 [Compound 11, 1-cyclohexyl-5-[3-(3-methylphenyl)-1,2,4-oxadiazol-5-yl]-1H-1,2,3-benzotriazole]	<6.5	<5	–	–	–	–	–
FC(F)(F)c1cccc(-c2nc(-c3ccc4c(c3)nnn4C3CCCC3)no2)c1 [Compound 12, 3-(1-cyclopentyl-1H-benzo[d][1,2,3]triazol-5-yl)-5-(3-(trifluoromethyl)phenyl)-1,2,4-oxadiazole]	<6.5	<5	–	–	–	–	–
Oc1ccc(-c2noc(-c3ccc4c(c3)nnn4C3CCCC3)n2)cc1 [Compound 13, 4-[5-(1-cyclopentyl-1H-1,2,3-benzotriazol-5-yl)-1,2,4-oxadiazol-3-yl]phenol]	>6.5	>5	–	–	–	–	–
CC(C)Oc1ccc(-c2nc(-c3ccc4c(c3)nnn4C3CCCC3)no2)cc1C(F)(F)F [Compound 14, 3-(1-cyclopentyl-1H-benzo[d][1,2,3]triazol-5-yl)-5-(4-isopropoxy-3-(trifluoromethyl)phenyl)-1,2,4-oxadiazole]	>6.5	>5	< 75%	–	< 75%	–	–
CC(C)n1nnc2cc(-c3nc(-c4ccc(Oc5ccccc5)cc4)no3)ccc21 [Compound 15, 5-[3-(4-phenoxyphenyl)-1,2,4-oxadiazol-5-yl]-1-(propan-2-yl)-1H-1,2,3-benzotriazole]	<6.5	<5	–	–	–	–	–

Second part, led by results:

hS1P1 cAMP pEC50 [1, 3]	hS1P1 B-arrestin2 pEC50 [2]	Emax [1]	EC50 ([1]; inhibition of cAMP production, S1P1 CHO-K1 cells, read-out: hS1P1 cAMP pEC50 (converted))	Emax [2]	Compound	hS1P1 cAMP SPAN [1]	hS1P1 B-arrestin2 SPAN [2]
<6.5	>5	–	–	–	2-(5-(5-(2- chlorophenyl)-1,2,4- oxadiazol-3-yl)-1H- benzo[d][1,2,3]triazol- 1-yl)-2-methylpropan- 1-ol [Compound 618]	<75	<75
<6.5	>5	–	–	–	CSc1ccccc1-c1nc(-c2ccc3c(c2)nnn3C2CCCC2)no1 [Compound 16, 3-(1-cyclopentyl-1H-benzo[d][1,2,3]triazol-5-yl)-5-(2-(methylthio)phenyl)-1,2,4-oxadiazole]	–	–
>6.5	>5	–	–	–	CC(C)n1nnc2cc(-c3nc(-c4ccccc4Cl)no3)ccc21 [Compound 17, 5-[3-(2-chlorophenyl)-1,2,4-oxadiazol-5-yl]-1-(propan-2-yl)-1H-1,2,3-benzotriazole]	–	–
<6.5	<5	–	–	–	CC(C)n1nnc2cc(-c3noc(C4CCC4)n3)ccc21 [Compound 18, 5-(5-cyclobutyl-1,2,4-oxadiazol-3-yl)-1-(propan-2-yl)-1H-1,2,3-benzotriazole]	–	–
>6.5	>5	–	–	–	CC(C)Oc1ccc(-c2noc(-c3ccc4c(c3)nnn4C(C)C)n2)cc1C(F)(F)F [Compound 20, 3-(4-isopropoxy-3-(trifluoromethyl)phenyl)-5-(1-isopropyl-1H-benzo[d][1,2,3]triazol-5-yl)-1,2,4-oxadiazole]	–	–
<6.5	<5	–	–	–	CC(C)n1nnc2cc(-c3nc(-c4ccccc4F)co3)ccc21 [Compound 21, 5-[4-(2-fluorophenyl)-1,3-oxazol-2-yl]-1-(propan-2-yl)-1H-1,2,3-benzotriazole]	–	–
<6.5	<5	–	–	–	CC(C)n1nnc2cc(-c3noc(-c4cccc(COc5ccccc5)c4)n3)ccc21 [Compound 23, 3-(1-isopropyl-1H-benzo[d][1,2,3]triazol-5-yl)-5-(3-(phenoxymethyl)phenyl)-1,2,4-oxadiazole]	–	–
<6.5	<5	–	–	–	OCCCn1nnc2cc(-c3noc(-c4ccccc4Br)n3)ccc21 [Compound 24, 3-(5-(5-(2-bromophenyl)-1,2,4-oxadiazol-3-yl)-1H-benzo[d][1,2,3]triazol-1-yl)propan-1-ol]	–	–
<6.5	<5	–	–	–	CC(C)c1ccc(-c2nc(-c3ccc4c(c3)nnn4C(C)C)no2)cn1 [Compound 25, 3-(1-isopropyl-1H-benzo[d][1,2,3]triazol-5-yl)-5-(6-isopropylpyridin-3-yl)-1,2,4-oxadiazole]	–	–
<6.5	>5	> 75%	–	< 75%	CCC1(CC)CC(=O)c2cc(-c3nc(-c4ccncc4)no3)ccc2O1 [Compound 27, 2,2-diethyl-6-[3-(pyridin-4-yl)-1,2,4-oxadiazol-5-yl]-3,4-dihydro-2H-1-benzopyran-4-one]	–	–
<6.5	<5	> 75%	–	> 75%	CCC1(CC)CC(=O)c2cc(-c3nnc(-c4cccnc4)o3)ccc2O1 [Compound 28, 2,2-diethyl-6-(5-(pyridin-3-yl)-1,3,4-oxadiazol-2-yl)chroman-4-one]	–	–
<6.5	<5	–	–	–	CCC1(CC)CC(=O)c2cc(-c3nc(-c4ccc5c(c4)nnn5C(C)C)ns3)ccc2O1 [Compound 29, 2,2-diethyl-6-(3-(1-isopropyl-1H-benzo[d][1,2,3]triazol-5-yl)-1,2,4-thiadiazol-5-yl)chroman-4-one]	–	–
